Patent US9784752B2, “Venlafaxine assay” (Randox Laboratories, Limited, priority 2012, dated 2017)
In brackets after ≈: the same amount, converted by molar mass.

System: polyclonal antibody raised to Immunogen II
Test: Competitive biochip immunoassay (Evidence Investigator) with Hapten-1 HRP detecting agent
Type: binding, sheep
Details: for % Cross-reactivity: %CR calculated from IC50 ratio x 100; for IC50: concentration causing 50% displacement of signal, competition with Hapten-1 HRP for immobilised polyclonal antibody, 30 minutes at 30° C.
Experimental: A semi-automated Evidence Investigator analyser (Randox Laboratories Ltd., Crumlin, UK) was used as the platform for a biochip assay for the detection of venlafaxine and O-desmethylvenlafaxine. Immunogen II was administered to adult sheep on a monthly basis to provide target-specific polyclonal antisera. IgG was extracted from the antisera, and the purified antibody was immobilised on a biochip (9 mm×9 mm). The assay is based on competition for binding sites of a polyclonal antibody between Hapten-1HRP detecting agent (Example 10) and venlafaxine and O-desmethylvenlafaxine and potential cross-reactants. The antibody was immobilised and stabilised onto the biochip surface as previously described (Fitzgerald et al., 2005). Assay diluent (155 μL), calibrator/venlafaxine and O-desmethylvenlafaxine or potential cross-reactant (25 μL) followed by Hapten-1 HRP detecting agent (120 μL) were added to the appropriate biochip. The biochips were then incubated for 30 minutes at 30° C. on a thermoshaker set at 370 rpm. The biochips were then subjected to 2 quick wash cycles using the wash buffer provided, followed by 4×2 minute wash cycles. 250 μL of signal (1:1 luminol+peroxide, v/v) was then added to each biochip, and after 2 minutes the biochip carrier was imaged in the Evidence Investigator analyser. Calibration curves were generated and these were used to determine the sensitivity and specificity of the immunoassay for venlafaxine, O-desmethylvenlafaxine and potential cross-reactants.
Table 1, cross-reactivity being calculated according to the following formula: %CR=IC50,O-desmethylvenlafaxine/IC50,CR×100 where % CR is the percentage cross-reactivity, IC50, O-desmethylvenlafaxine is the concentration of O-desmethylvenlafaxine which causes 50% displacement of signal and IC50, CR is the concentration of venlafaxine or potential cross-reactant that causes 50% displacement of signal.

Compound | % Cross-reactivity [%] | IC50 [mg/L]
CN(C)C[C@H]1CCCC[C@]1(O)c1cccc(O)c1 [O-Desmethyltramadol] | <5.7 | >0.32
COC(=O)C(c1ccccc1)C1CCCCN1 (centres unmarked) [Methylphenidate] | <5.7 | >0.32
c1ccc(C2(N3CCCCC3)CCCCC2)cc1 [PCP] | <5.7 | >0.32
CNCC1CCCCC1(O)c1cccc(OC)c1 (centres unmarked) [N-Desmethyltramadol] | <5.7 | >0.32
COc1cccc(C2(O)CCCCC2CN(C)C)c1 (centres unmarked) [Tramadol] | <5.7 | 
COc1ccc(C(CN(C)C)C2(O)CCCCC2)cc1 (racemic) [Venlafaxine, (RS)-1-[2-(dimethylamino)-1-(4-methoxyphenyl)ethyl]cyclohexanol] | 100 | 0.01831 (≈ 0.066 µM)
CN(C)CC(c1ccc(O)cc1)C1(O)CCCCC1 (racemic) [O-Desmethylvenlafaxine, (RS)-1-[2-(dimethylamino)-1-(4-hydroxyphenyl)ethyl]cyclohexanol] | 48.4 | 0.03786 (≈ 0.144 µM)
CCOC(=O)C1(c2ccccc2)CCN(C)CC1 [Meperidine] | <5.7 | 
